What was measured:
[1] = Stable polymorph form screen (slurry experiments); format: physicochemical; conditions: between 2° C. and 73° C.
Method: Slurry experiments were conducted to identify the stable form at various conditions. In these experiments, saturated solutions in various solvents containing excess undissolved solids (starting with Form A+minor Form B) were stirred for extended durations. Slurries at room temperature (RT) and 2-8° C. were typically conducted for approximately 2 weeks, while slurries at 72-73° C. were stirred for a shorter duration (1 day) to minimize the potential for decomposition. […] The results are shown in the table 12 where the time and temperatures are approximate.

[2] = Form A and Form B interconversion (competitive) slurries; format: physicochemical; conditions: between 2° C. and 72° C.
Method: Relative thermodynamic stabilities of anhydrous/non-solvated Forms A and B were studied at 2-8° C., room temperature (RT) and at 71-72° C. via interconversion (competitive) slurries. In these slurries, a given solvent system was pre-saturated with compound 092 (Form A+minor Form B) at the stated temperature, and a portion of the liquid phase was filtered into a mixture of solids containing relatively equal amounts of Form A and Form B. Interconversion slurries at 2-8° C. and RT were allowed to stir for 22 days, while slurries at 71-72° C. stirred for shorter duration (2-4 days). […] The results are reported in table 13 below where: liquid phase for each slurry was pre-saturated using as-received Form A+minor Form B; solvent ratios are v/v; water activity values were calculated using UNIFAC calculator at RT; and times and temperatures are approximate.

relative stability of polymorph forms (slurry screen) [1]: more stable than Form B | relative thermodynamic stability of Forms A and B (competitive slurries) [2]: thermodynamically stable form
Structure (SMILES): CC1(NC(=O)c2cccc3nn(-c4cccnc4)cc23)CC1 [Form A, N-(1-methylcyclopropyl)-2-(3-pyridinyl)-2H-indazole 4-carboxamide]

— US20250154124A1, “PROCESSES FOR THE PREPARATION OF N-(1-METHYLCYCLOPROPYL)-2-(3-PYRIDINYL)-2H-INDAZOLE-4-CARBOXAMIDE AND INTERMEDIATES THEREOF” (FMC CORPORATION, priority 2022, published 2025)
